The text below walks through data of patent US20240246959A1, “BENZIMIDAZOLE DERIVATIVE AND PREPARATION METHOD THEREFOR AND MEDICAL USE THEREOF” (Shenzhen Salubris Pharmaceuticals Co., Ltd., priority 2020, published 2024).

One data set addresses T1, human GLP-1 R (Homo sapiens, UniProt P43220).
T1 construct: expressed in transfected cells
As to the kind of experiment: cAMP signal activation in human GLP1R cells (hGLP1R-U2OS, HTRF). The format is cell-based. As to the method: A cell line stably expressing human GLP1 R (hGLP1R-U2OS) was used in this experiment. The cells were cultured in a growth medium (complete medium, DMEM+10% FBS+500 μg/mL G418 (Promega)) in an incubator at 37° C. and has 5% CO2 saturated humidity.
hGLP1R-U2OS was inoculated into 384-well plate with 1.0×10^4 cells/well (5 μL) (cell working solution: DMEM+0.1% BSA+1 mM IBMX (available from Bide Pharmatech Ltd.)), and was placed in an incubator at 37° C. and held for 30 min. The compounds to be tested were diluted stage-by-stage with Stimulation Buffer 1 (1×) in the kit, and the diluted compounds were added to the culture plate with 5 μL/well. They were incubated in an incubator at 37° C. for 30 min. Then, 5 μL/well of cAMP-d2 prepared with Lysis & Detection buffer and 5 μL/well of Anti CAMP-Cryptate working solution were added successively, and they were incubated at room temperature for 60 min before detection.
The ratio of signal emitted by donor to […] in each well was calculated as follows: HTRF rate=signal at 665 nm/signal at 620 nm×104, and then the HTRF rate was converted into a reaction rate (%). The concentration-response curve of each Example compound was created by a 4-parameter equation as Y=Bottom+(Top−Bottom)/(1+10^((Log IC50−X)*HillSlope)), and the half maximal (50%) effective concentration (EC50) was calculated.
(In TR-FRET formats the signal depends on donor and acceptor labels being close together.)

Data set [1] in a line: Pharmacokinetic study on rat. The format is in vivo, SD rats. As to conditions: for F: 5 mg/kg p.o vs 1 mg/kg i.v; for AUC(0-t) / Cmax / clearance / half-life: male, Sprague-Dawley (SD), plasma. An excerpt:
• SD rats: male, 180-250 g, purchased from Beijing Vital River Laboratory Animal Technology Co., Ltd. • Reagents: DMSO (dimethyl sulfoxide), PEG-400 (polyethylene glycol 400), physiological saline, heparin, acetonitrile, formic acid, and propranolol (internal standard), all of which are commercially available. • Instruments: Thermo Fisher Scientific LC-MS (U300 UPLC, TSQ QUANTUMN ULTRA triple quadrupole mass spectrometer).
A compound was weighed and dissolved in a DMSO-PEG-400-physiological saline (5:60:35, v/v/v) system. After the rats were administered with the compound intravenously or by gavage, 200 μL of venous blood samples were collected at 15 min, 30 min, 1 h, 2 h, 5 h, 7 h, and 24 h (for i.v. group an additional collection was performed at 5 min) in heparinized EP tubes respectively, which were centrifuged at 12,000 rpm for 2 min, and the plasma was frozen at −80° C. for further testing. A certain amount of the test substance was precisely weighed and dissolved in DMSO to obtain a stock solution with a concentration of 2 mg/mL. An appropriate amount of the stock solution of the compound was accurately pipetted and diluted with acetonitrile to prepare a standard series solution. 20 μL of each of the above standard series solution was accurately pipetted, added with 180 μL of blank plasma, and vortexed mixed to prepare plasma samples corresponding to plasma concentrations of 0.3, 1, 3, 10, 30, 100, 300, 1000, 3000 ng/mL. Two-sample analysis was performed for each concentration to establish a standard curve. 30 μL of plasma (for samples that are obtained at 5 min, 15 min, 30 min, and 1 h after intravenous administration, the plasma were diluted 10 times) was taken, added with 200 μL of a solution of internal standard propranolol in acetonitrile (50 ng/ml), and vortexed mixed. The mixture was then added with 100 μL of pure water, and vortexed and mixed again. It was centrifuged at 4000 rpm for 5 min, and the supernatant was collected for LC-MS analysis. LC-MS detection conditions were as follows. • Chromatographic column: Thermo Scientific HYPERSIL GOLD C-18 UPLC column, 100*2.1 mm, 1.7 μm. • Mobile phase: water (with 0.1% formic acid)-acetonitrile; gradient elution was performed according to the table below.
After blood drug concentrations was detected by LC-MS, WinNonlin 6.1 software was used to calculate pharmacokinetic parameters based on non-compartmental model.

T1 sequence (P43220 24-463): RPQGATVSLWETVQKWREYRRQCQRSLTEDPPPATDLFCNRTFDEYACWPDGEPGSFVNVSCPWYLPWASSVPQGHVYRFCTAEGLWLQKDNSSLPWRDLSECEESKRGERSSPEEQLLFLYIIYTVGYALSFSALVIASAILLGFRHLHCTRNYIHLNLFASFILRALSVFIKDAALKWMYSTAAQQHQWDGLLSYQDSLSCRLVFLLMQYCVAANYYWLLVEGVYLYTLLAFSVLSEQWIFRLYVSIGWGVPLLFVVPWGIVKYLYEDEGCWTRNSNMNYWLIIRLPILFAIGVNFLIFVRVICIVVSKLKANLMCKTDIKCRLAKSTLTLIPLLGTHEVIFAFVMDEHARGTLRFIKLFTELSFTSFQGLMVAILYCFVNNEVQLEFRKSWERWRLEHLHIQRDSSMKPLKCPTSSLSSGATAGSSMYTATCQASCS

One may read the EC50 as the concentration that produces a half-maximal response. Turning to `C[C@@H](c1nc2ccc(C(=O)O)cc2n1C[C@@H]1CCO1)N1CCC(c2cccc(OCc3ccc4cnn(CC(F)(F)F)c4c3)n2)CC1` [Example 9, 1-(((S)-oxetan-2-yl)methyl)-2-((S)-1-(4-(6-((1-(2,2,2-trifluoroethyl)-1H-indazol-6-yl)methoxy)pyridin-2-yl)piperidin-1-yl)ethyl)-1H-benzo[d]imidazol-6-carboxylic acid], on human GLP-1 R, the 50% effective concentration (EC50) was 3.48 nM.

With `C[C@@H](c1nc2ccc(C(=O)O)nc2n1C[C@@H]1CCO1)N1CCC(c2cccc(OCc3ccc(C#N)cc3F)n2)CC1` [Example 15, 2-((S)-1-(4-(6-((4-cyano-2-fluorobenzyl)oxy)pyridin-2-yl)piperidin-1-yl)ethyl)-3-(((S)-oxetan-2-yl)methyl)-3H-imidazo[4,5-b]pyridin-5-carboxylic acid], the EC50 at human GLP-1 R was found to be 2.57 nM.

Regarding `C[C@@H](c1nc2ccc(C(=O)O)cc2n1C[C@@H]1CCO1)N1CCC(c2cccc(OCc3ccc(Cl)cc3F)n2)C(O)C1` (stereo partly drawn) [Example 31, 2-((1S)-1-((3,4-trans)-4-(6-((4-chloro-2-fluorobenzyl)oxy)pyridin-2-yl)-3-hydroxypiperidin-1-yl)ethyl)-1-(((S)-oxetan-2-yl)methyl)-1H-benzo[d]imidazol-6-carboxylic acid], the EC50 on human GLP-1 R turned out to be 14.4 nM.

On to `C[C@@H](c1nc2ccc(C(=O)O)nc2n1C[C@@H]1CCO1)N1CCC(c2cccc(OCc3cccc4cc(F)cnc34)n2)CC1` [Example 19, 2-((S)-1-(4-(6-((3-fluoroquinolin-8-yl)methoxy)pyridin-2-yl)piperidin-1-yl)ethyl)-3-(((S)-oxetan-2-yl)methyl)-3H-imidazo[4,5-b]pyridin-5-carboxylic acid], for which the EC50 on human GLP-1 R came to 3.94 nM.

`C[C@@H](c1nc2ccc(C(=O)O)cc2n1C[C@@H]1CCO1)N1CCN(c2cc(C#N)cc(OCc3ccc(C#N)cc3F)n2)CC1` [Example 45, 2-((S)-1-(4-(4-cyano-6-((4-cyano-2-fluorobenzyl)oxo)pyridin-2-yl)piperazin-1-yl)ethyl)-1-(((S)-oxetan-2-yl)methyl)-1H-benzo[d]imidazol-6-carboxylic acid]: the EC50 at human GLP-1 R was 24.6 nM.

`C[C@@H](c1nc2ccc(C(=O)O)nc2n1C[C@@H]1CCO1)N1CCC(c2cccc(OCc3ccc4cnn(CC(F)F)c4c3)n2)CC1` [Example 11, 2-((S)-1-(4-(6-((1-(2,2-difluoroethyl)-1H-indazol-6-yl)methoxy)pyridin-2-yl)piperidin-1-yl)ethyl)-3-(((S)-oxetan-2-yl)methyl)-3H-imidazo[4,5-b]pyridin-5-carboxylic acid] gave an EC50 on human GLP-1 R of 3.45 nM.

The AUC(0-t) is the area under the concentration-time curve up to a stated or last time point. The low end stands for less exposure, the high end for more exposure. By Cmax is commonly meant the maximum level reached in the sampled fluid or tissue. For orientation: clearance means the rate of elimination divided by the concentration. Higher therefore signals a high capacity for elimination. By half-life is commonly meant how long it takes for the measured level to halve. The compound `C[C@@H](c1nc2ccc(C(=O)O)cc2n1C[C@@H]1CCO1)N1CCC(c2cccc(OCc3ccc(C#N)cc3F)n2)CC1` [Example 2A, 2-((S)-1-(4-(6-((4-cyano-2-fluorobenzyl)oxy)pyridin-2-yl)piperidin-1-yl)ethyl)-1-(((S)-oxetan-2-yl)methyl)-1H-benzo[d]imidazol-6-carboxylic acid] displayed an EC50 on human GLP-1 R of 3.18 nM. The compound also yielded a F in data set [1] of 63.5%. In data set [1] (iv, 1 mg/kg, i.v), this compound showed an AUC(0-t) of 1250 ng·h/mL, a Cmax of 2330 ng/mL, a clearance of 13.3 mL/min/kg and a half-life of 42.6 min. In data set [1] (po, 5 mg/kg, p.o), this compound had an AUC(0-t) of 3970 ng·h/mL, a Cmax of 1290 ng/mL and a half-life of 187 min.

The compound `C[C@@H](c1nc2ccc(C(=O)O)cc2n1C[C@@H]1CCO1)N1CCN(c2cccc(OCc3ccc(Cl)cc3F)n2)CC1` [Example 39A] displayed an EC50 at human GLP-1 R of 15.5 nM.

`C[C@@H](c1nc2ccc(C(=O)O)cc2n1C[C@@H]1CCO1)N1CCC(c2cccc(OCc3cc(F)ccc3F)n2)CC1` [Example 5, 2-((S)-1-(4-(6-((2,5-difluorobenzyl)oxy)pyridin-2-yl)piperidin-1-yl)ethyl)-1-(((S)-oxetan-2-yl)methyl)-1H-benzo[d]imidazol-6-carboxylic acid] came in with a concentration for a half-maximal effect (EC50) at human GLP-1 R of 1.04 nM. The compound further registered a F in data set [1] of 72.8%. In data set [1] (iv, 1 mg/kg, i.v), the AUC(0-t) is 5770 ng·h/mL, the Cmax was determined as 4730 ng/mL, the clearance is 2.88 mL/min/kg and the half-life was 232 min. In data set [1] (po, 5 mg/kg, p.o), this compound showed an AUC(0-t) of 21000 ng·h/mL, a Cmax of 3470 ng/mL and a half-life of 166 min.

Compound `C[C@@H](c1nc2ccc(C(=O)O)nc2n1C[C@@H]1CCO1)N1CCC(c2cccc(OCc3ccnc4cc(F)ccc34)n2)CC1` [Example 18, 2-((S)-1-(4-(6-((7-fluoroquinolin-4-yl)methoxy)pyridin-2-yl)piperidin-1-yl)ethyl)-3-(((S)-oxetan-2-yl)methyl)-3H-imidazo[4,5-b]pyridine-5-carboxylic acid] showed a 50% effective concentration (EC50) on human GLP-1 R of 2.66 nM.

At human GLP-1 R, `C[C@@H](c1nc2ccc(C(=O)O)cc2n1C[C@@H]1CCO1)N1CCC(c2cccc(OCc3ccc4cnn(CC(F)F)c4c3)n2)CC1` [Example 8, 2-((S)-1-(4-(6-((1-(2,2-difluoroethyl)-1H-indazol-6-yl)methoxy)pyridin-2-yl)piperidin-1-yl)ethyl)-1-(((S)-oxetan-2-yl)methyl)-1H-benzo[d]imidazol-6-carboxylic acid] gave a half-maximal effective concentration (EC50) of 10.3 nM.

Consider `C[C@@H](c1nc2ccc(C(=O)O)cc2n1C[C@@H]1CCO1)N1CCN(c2ncc(F)c(OCc3ccc(C#N)cc3F)n2)CC1` [Example 42, 2-((S)-1-(4-(4-((4-cyano-2-fluorobenzyl)oxy)-5-fluoropyrimidin-2-yl)piperazin-1-yl)ethyl)-1-(((S)-oxetan-2-yl)methyl)-1H-benzo[d]imidazol-6-carboxylic acid], for which it took 12 nM to reach a half-maximal effect at human GLP-1 R (EC50).

Compound `C[C@@H](c1nc2ccc(C(=O)O)cc2n1C[C@@H]1CCO1)N1CCN(c2cc(C(F)(F)F)cc(OCc3ccc(C#N)cc3F)n2)CC1` [Example 44, 2-((S)-1-(4-(6-((4-cyano-2-fluorobenzyl)oxy)-4-(trifluoromethyl)pyridin-2-yl)piperazin-1-yl)ethyl)-1-(((S)-oxetan-2-yl)methyl)-1H-benzo[d]imidazol-6-carboxylic acid] registered a F in data set [1] of 57.3%. In data set [1] (iv, 1 mg/kg, i.v), this compound showed an AUC(0-t) of 2260 ng·h/mL, a Cmax of 4360 ng/mL, a clearance of 7.37 mL/min/kg and a half-life of 41.4 min. In data set [1] (po, 5 mg/kg, p.o), this compound had an AUC(0-t) of 6470 ng·h/mL, a Cmax of 1410 ng/mL and a half-life of 174 min.

In the case of `C[C@@H](c1nc2ccc(C(=O)O)cc2n1C[C@@H]1CCO1)N1CCC(c2cccc(OCc3ccc(Br)cc3F)n2)CC1` [Example 13, 2-((S)-1-(4-(6-((4-bromo-2-fluorobenzyl)oxy)pyridin-2-yl)piperidin-1-yl)ethyl)-1-(((S)-oxetan-2-yl)methyl)-1H-benzo[d]imidazol-6-carboxylic acid], at human GLP-1 R, the response was half-maximal at 18.7 nM (EC50).

At human GLP-1 R, `C[C@@H](c1nc2ccc(C(=O)O)nc2n1C[C@@H]1CCO1)N1CCC(c2cccc(OCc3ccc4cnn(CC(F)(F)F)c4c3)n2)CC1` [Example 17, 3-(((S)-oxetan-2-yl)methyl)-2-((S)-1-(4-(6-((1-(2,2,2-trifluoroethyl)-1H-indazol-6-yl)methoxy)pyridin-2-yl)piperidin-1-yl)ethyl)-3H-imidazo[4,5-b]pyridin-5-carboxylic acid] showed an EC50 of 2.92 nM.
